Earlier results, collected in patent publication US6531162B1, “Adrenergically-mediated weight loss product” (priority 2002, dated 2003).
“Also recorded” adds a separate entry of the source.

Experiments:
COMT enzyme = details: in-vitro
beta-3 receptors [1] = target: T1, beta-3 receptors (Homo sapiens, UniProt P13945); details: in-vitro studies
humans = details: after oral dosing
[2] = single doses as high as 21.6 mg or daily cumulative doses as high as 43.2 mg
[3] = green tea versus equivalent dose (50 mg) of caffeine
beta-3 receptors [4] = target: T1, beta-3 receptors; details: using beta blocking agents

T1 sequence (P13945 whole entry): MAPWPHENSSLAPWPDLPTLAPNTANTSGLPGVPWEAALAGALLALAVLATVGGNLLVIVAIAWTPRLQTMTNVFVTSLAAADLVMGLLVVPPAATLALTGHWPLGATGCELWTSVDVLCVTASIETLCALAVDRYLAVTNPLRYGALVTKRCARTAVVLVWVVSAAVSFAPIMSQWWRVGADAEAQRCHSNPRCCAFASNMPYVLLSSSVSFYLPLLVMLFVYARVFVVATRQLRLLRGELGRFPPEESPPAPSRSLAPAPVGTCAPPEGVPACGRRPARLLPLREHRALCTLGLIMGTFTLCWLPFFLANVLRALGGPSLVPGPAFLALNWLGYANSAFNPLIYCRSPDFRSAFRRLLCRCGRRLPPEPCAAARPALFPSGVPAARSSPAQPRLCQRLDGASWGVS

COc1c(O)cc2c(c1O)[C@@H]1O[C@H](CO)[C@@H](O)[C@H](O)[C@H]1OC2=O [Bergenin]
effect on lipogenic actions of insulin (fat cells): oppose the lipogenic (fat building) actions of insulin
direct stimulation of lipolysis / adrenergic activity (fat cells; in-vitro, compound alone): does not directly stimulate lipolysis; also recorded: no direct adrenergic activity
enhancement of lipolysis induced by norepinephrine (fat cells; in-vitro, with norepinephrine): markedly enhances lipolysis; also recorded: increase the lipolytic activity of norepinephrine

O=C(O[C@@H]1Cc2c(O)cc(O)cc2O[C@@H]1c1cc(O)c(O)c(O)c1)c1cc(O)c(O)c(O)c1 [EGCG]
inhibition of the COMT enzyme (COMT enzyme): inhibit the COMT enzyme

NCC(O)c1ccc(O)cc1 (stereo not shown) [Octopamine]
beta-3 agonist activity and selectivity (beta-3 receptors [1]): potent selective beta-3 agonist; also recorded: selective for this receptor

COC(=O)[C@@H]1[C@H]2C[C@H]3c4[nH]c5ccccc5c4CCN3C[C@@H]2CC[C@@H]1O [Yohimbine]
lipolysis in humans (humans): capable of increasing lipolysis
impact on blood pressure or heart rate [2]: no significant impact
tolerability [2]: well tolerated

Cn1c(=O)c2c(ncn2C)n(C)c1=O [caffeine]
24 hour energy expenditure [3]: no noticeable effect

CN[C@@H](C)[C@H](O)c1ccccc1 [ephedrine]
share of ephedrine-induced thermogenesis accounted for by beta-3 agonist activity (beta-3 receptors [4]): at least 40%
